Starred links: 1 amine or outer side, 2 acyl side, 3 side chain; linkers in the order of their positions; H or OH if unused. Residues, ends and D or L forms follow the SMILES beside them. Groups on a side chain read outwards from the residue. *: point of attachment. γGlu = O=C(O)[C@H](CCC(=O)[*:2])N[*:1]; Palmitoyl = CCCCCCCCCCCCCCCC(=O)*
How the values were obtained:
[1] = target: T1, Neuromedin U receptor 2 (NMUR2) (Homo sapiens, UniProt Q9GZQ4); assay: Functional assay (IP3 SPA-ysi assay) in HEK293 cells transfected with NMUR2; type: cell-based; conditions: HEK293 cells transiently transfected with NMUR2; head says cAMP, method describes IP3 SPA readout
T1 construct: expressed in transfected cells; host or cells: HEK293 cells, transient calcium phosphate transfection; the empty-vector control is pcDNA3
T1 sequence (Q9GZQ4 whole entry): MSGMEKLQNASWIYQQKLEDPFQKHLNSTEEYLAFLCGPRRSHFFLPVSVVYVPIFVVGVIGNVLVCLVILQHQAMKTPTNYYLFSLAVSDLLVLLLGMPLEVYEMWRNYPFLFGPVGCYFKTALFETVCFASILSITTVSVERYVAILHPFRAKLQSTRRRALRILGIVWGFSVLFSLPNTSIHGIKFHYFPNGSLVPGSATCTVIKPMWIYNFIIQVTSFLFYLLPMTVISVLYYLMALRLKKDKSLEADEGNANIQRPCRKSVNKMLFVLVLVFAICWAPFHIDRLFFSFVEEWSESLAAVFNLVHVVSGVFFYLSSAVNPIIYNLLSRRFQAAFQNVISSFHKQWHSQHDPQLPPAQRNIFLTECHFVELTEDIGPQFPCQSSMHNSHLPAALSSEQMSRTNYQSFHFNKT
Method: (§1) All compounds were dissolved in dimethyl sulfoxide (DMSO), and then water was added (total DMSO conc. was 80%). The stock concentration was 1 mM for all the compounds. Stocks were alliquoted and frozen -20°C.
(§2) The day before each assay a new standard row was prepared by dilution of the stock solution in assay buffer (1 mM acetic acid + 0.1% bovine serum albumin (BSA)). The following concentrations were prepared (depending on the ligand potency): 10^-5, 10^-6, 10^-7, 10^-7.5, 10^-8, 10^-8.5, 10^-9, 10^-10, 10^-11, 10^-12 M.
Cell cultures: The HEK293 cells are grown in (DMEM31966 glutamax supplemented with 10% FBS (fetal bovine serum) and 1% penicillin G and streptomycin) and incubated at 37°C with 10% CO2 in a humidified atmosphere. The cells were split as follows. HEK293 cells approximately 80% confluent was used. The cells were removed from the bottom of the bottle by removing the media (DMEM31966 glutamax supplemented with 10% FBS and 1% penicillin G and streptomycin), rinsed with 5 mL phosphate buffered saline (PBS) and shaken gently. The PBS was removed and cells were released from the bottom with trypsin (1-2 mL) and incubated for 2-3 min. The flasks were then turned gently to ensure complete release of the cells from the bottom. Then media was added to the cells, (5-8 mL was used to rinse the cells of the bottom, this process was repeated approximately 4 times using the same media). Cell suspension was then transferred to a new bottle (approximately 4 × 10^6 cells per 175 cm^2 flask) and 20 mL media was added. Cells were incubated at 37°C with 10% CO2 in a humidified atmosphere.
Transfection of cells: HEK293 cells were seeded out at the density of 8 × 10^6 cells per 175 cm^2 flask 1 day prior to the transfection. Before transfection of cells, the culture medium was aspirated and half of the standard volume was added. 40 µg receptor-containing plasmid (Neuromedin U receptor 1 (NMUR1) or Neuromedin U receptor 2 (NMUR2)) or "empty" vector plasmid (pcDNA3), as a negative control, was mixed with 60 µL […] CaCl2 and Tris-EDTA (TE) buffer (10 mM tris(hydroxymethyl)aminomethane hydrochloride (Tris HCl), 1 mM ethylenedinitrilotetraacetic acid (EDTA), pH 7.5) to a total volume of 480 µL. The mixture was added drop-wise to another tube containing 480 µL 2 × HEPES buffered saline (HBS buffer) (280 mM NaCl, 50 mM 4-(2-Hydroxyethyl)piperazine-1-ethanesulfonic acid (HEPES), 1.5 mM NaHPO4, pH 7.2) and left for 45 min at room temperature for DNA precipitation. Afterwards, the precipitate was added carefully to the cells and cells were incubated for 5 hours at normal culture conditions. The transfection was stopped by change of the DNA-containing medium with 20 mL of fresh cell culture medium.
Seeding of the cells in 96 well plates: One day after transfection, cells were harvested using trypsin as described above. The cells were seeded in a poly-D-lysine coated clear 96 well plate. 100 µL cell suspension 350.000 cells/mL was added. 3H-myo-inositol (5µL/mL) was added to each well yielding a concentration of 35000 cells/well. The cells were incubated overnight before assay procedure the following day.
IP3 SPA-ysi assay: The media was removed and the plates were washed with 200 µL of Hank's balanced salt solution (HBSS) (Gibco, Life Technologies). 100 µL of HBSS/10 mM LiCl was added and the plates were incubated 15 min at 37°C. 5 µL ligand was added to each well and the plate was incubated at 37°C for 70-90 min (incubation time was approximately 1 h and 16 min for all plates). The plates were placed on ice and 50 µL formic acid (10 mM) was added to each well. The plates was left on ice for at least 30 min. 20 µL was then transferred to a white 96 well plate and 80 µL yttrium silicate (YSi) SPA-beads RPNQ0010 (Perkin Elmer) solution (0.0125 g/mL) is added to each well. The plates were sealed and shaken on high speed for 30 min, then centrifuged for 5 min at 1500 rpm and counted with 8 hours delay in the top counter. […]

[2] = target: T2, Neuromedin U receptor 1 (NMUR1) (Homo sapiens, UniProt Q9HB89); assay: Functional assay (IP3 SPA-ysi assay) in HEK293 cells transfected with NMUR1; type: cell-based; conditions: HEK293 cells transiently transfected with NMUR1; head says cAMP, method describes IP3 SPA readout
T2 construct: expressed in transfected cells; host or cells: HEK293 cells, transient calcium phosphate transfection
T2 sequence (Q9HB89 1-426): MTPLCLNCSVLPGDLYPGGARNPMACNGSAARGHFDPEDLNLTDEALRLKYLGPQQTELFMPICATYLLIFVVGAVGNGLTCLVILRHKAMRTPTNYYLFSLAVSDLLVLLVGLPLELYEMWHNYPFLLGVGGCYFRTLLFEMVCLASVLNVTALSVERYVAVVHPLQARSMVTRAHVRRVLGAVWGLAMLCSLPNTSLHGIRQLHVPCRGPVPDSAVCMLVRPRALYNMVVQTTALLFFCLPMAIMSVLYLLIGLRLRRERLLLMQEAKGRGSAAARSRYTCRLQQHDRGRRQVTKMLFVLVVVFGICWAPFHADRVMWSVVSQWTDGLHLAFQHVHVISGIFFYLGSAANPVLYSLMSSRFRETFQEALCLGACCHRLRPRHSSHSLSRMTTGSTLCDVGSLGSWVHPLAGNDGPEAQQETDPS
Method: as §1, §2
Cell cultures: The HEK293 cells are grown in (DMEM31966 glutamax supplemented with 10% FBS (fetal bovine serum) and 1% penicillin G and streptomycin) and incubated at 37°C with 10% CO2 in a humidified atmosphere. The cells were split as follows. HEK293 cells approximately 80% confluent was used. The cells were removed from the bottom of the bottle by removing the media (DMEM31966 glutamax supplemented with 10% FBS and 1% penicillin G and streptomycin), rinsed with 5 mL phosphate buffered saline (PBS) and shaken gently. […]
IP3 SPA-ysi assay: The media was removed and the plates were washed with 200 µL of Hank's balanced salt solution (HBSS) (Gibco, Life Technologies). […] The plates were sealed and shaken on high speed for 30 min, then centrifuged for 5 min at 1500 rpm and counted with 8 hours delay in the top counter. […]

Row | EC50 [1] [nM] | EC50 [2] [nM] | Compound
1 | 162 | – | CCCCCCCCCCCCCCCC(=O)N[C@@H](CCC(=O)NCCCC[C@H](NC(=O)[C@H](CCC(N)=O)NC(=O)[C@H](CO)NC(=O)[C@H](C)NC(=O)[C@H](Cc1ccccc1)NC(=O)[C@@H]1CCCN1C(=O)[C@H](CO)NC(=O)[C@H](CCC(N)=O)NC(=O)[C@H](Cc1ccccc1)NC(=O)[C@H](CCC(=O)O)NC(=O)[C@H](CCC(=O)O)NC(=O)[C@H](CC(=O)O)NC(=O)[C@@H](NC(=O)[C@H](CCCNC(=N)N)NC(=O)[C@@H](N)Cc1ccccc1)C(C)C)C(=O)N[C@@H](CCCNC(=N)N)C(=O)NCC(=O)N[C@@H](Cc1ccc(O)cc1)C(=O)N[C@@H](Cc1ccccc1)C(=O)N[C@@H](CC(C)C)C(=O)N[C@@H](Cc1ccccc1)C(=O)N[C@@H](CCCNC(=N)N)C(=O)N1CCC[C@H]1C(=O)N[C@@H](CCCNC(=N)N)C(=O)N[C@@H](CC(N)=O)C(N)=O)C(=O)O [SEQ ID NO 5] (H-FRVDEEFQSPFASQK([γGlu-Palmitoyl])RGYFLFRPRN-NH2)
2 | 155 | – | CCCCCCCCCCCCCCCC(=O)N[C@@H](CCC(=O)NCCCC[C@H](NC(=O)[C@H](C)NC(=O)[C@H](Cc1ccccc1)NC(=O)[C@@H]1CCCN1C(=O)[C@H](CO)NC(=O)[C@H](CCC(N)=O)NC(=O)[C@H](Cc1ccccc1)NC(=O)[C@H](CCC(=O)O)NC(=O)[C@H](CCC(=O)O)NC(=O)[C@H](CC(=O)O)NC(=O)[C@@H](NC(=O)[C@H](CCCNC(=N)N)NC(=O)[C@@H](N)Cc1ccccc1)C(C)C)C(=O)N[C@@H](CCC(N)=O)C(=O)N[C@@H](CO)C(=O)N[C@@H](CCCNC(=N)N)C(=O)NCC(=O)N[C@@H](Cc1ccc(O)cc1)C(=O)N[C@@H](Cc1ccccc1)C(=O)N[C@@H](CC(C)C)C(=O)N[C@@H](Cc1ccccc1)C(=O)N[C@@H](CCCNC(=N)N)C(=O)N1CCC[C@H]1C(=O)N[C@@H](CCCNC(=N)N)C(=O)N[C@@H](CC(N)=O)C(N)=O)C(=O)O [SEQ ID NO 8] (H-FRVDEEFQSPFAK([γGlu-Palmitoyl])QSRGYFLFRPRN-NH2)
3 | 52.8 | 51.4 | CCCCCCCCCCCCCCCC(=O)N[C@@H](CCC(=O)NCCCC[C@H](NC(=O)[C@H](CCC(=O)O)NC(=O)[C@H](CC(=O)O)NC(=O)[C@@H](NC(=O)[C@H](CCCNC(=N)N)NC(=O)[C@@H](N)Cc1ccccc1)C(C)C)C(=O)N[C@@H](Cc1ccccc1)C(=O)N[C@@H](CCC(N)=O)C(=O)N[C@@H](CO)C(=O)N1CCC[C@H]1C(=O)N[C@@H](Cc1ccccc1)C(=O)N[C@@H](C)C(=O)N[C@@H](CO)C(=O)N[C@@H](CCC(N)=O)C(=O)N[C@@H](CO)C(=O)N[C@@H](CCCNC(=N)N)C(=O)NCC(=O)N[C@@H](Cc1ccc(O)cc1)C(=O)N[C@@H](Cc1ccccc1)C(=O)N[C@@H](CC(C)C)C(=O)N[C@@H](Cc1ccccc1)C(=O)N[C@@H](CCCNC(=N)N)C(=O)N1CCC[C@H]1C(=O)N[C@@H](CCCNC(=N)N)C(=O)N[C@@H](CC(N)=O)C(N)=O)C(=O)O [SEQ ID NO 14] (H-FRVDEK([γGlu-Palmitoyl])FQSPFASQSRGYFLFRPRN-NH2)
4 | 50.5 | – | CCCCCCCCCCCCCCCC(=O)N[C@@H](CCC(=O)NCCCC[C@H](NC(=O)[C@@H](NC(=O)[C@H](CCCNC(=N)N)NC(=O)[C@@H](N)Cc1ccccc1)C(C)C)C(=O)N[C@@H](CCC(=O)O)C(=O)N[C@@H](CCC(=O)O)C(=O)N[C@@H](Cc1ccccc1)C(=O)N[C@@H](CCC(N)=O)C(=O)N[C@@H](CO)C(=O)N1CCC[C@H]1C(=O)N[C@@H](Cc1ccccc1)C(=O)N[C@@H](C)C(=O)N[C@@H](CO)C(=O)N[C@@H](CCC(N)=O)C(=O)N[C@@H](CO)C(=O)N[C@@H](CCCNC(=N)N)C(=O)NCC(=O)N[C@@H](Cc1ccc(O)cc1)C(=O)N[C@@H](Cc1ccccc1)C(=O)N[C@@H](CC(C)C)C(=O)N[C@@H](Cc1ccccc1)C(=O)N[C@@H](CCCNC(=N)N)C(=O)N1CCC[C@H]1C(=O)N[C@@H](CCCNC(=N)N)C(=O)N[C@@H](CC(N)=O)C(N)=O)C(=O)O [SEQ ID NO 17] (H-FRVK([γGlu-Palmitoyl])EEFQSPFASQSRGYFLFRPRN-NH2)
